Data reported in PubChem BioAssay AID493105 (The Scripps Research Institute Molecular Screening Center, 2011).
Active and inactive are the calls of the source. No rule for the calls is given here.

Columns and labels:
Assay in all cases: LYPLA1 and LYPLA2 inhibitors, biochemical, gel-based ABPP, fluorescence, recombinant and endogenous enzyme (AID 493105)
[1] = system: rhLYPLA2; settings: fluorescent probe labeling, membrane fraction, at 20 µM, active compounds read high
[2] = system: emLYPLA2; settings: fluorescent probe labeling, membrane fraction, at 20 µM, active compounds read high
[3] = system: emLYPLA1; settings: fluorescent probe labeling, membrane fraction, at 20 µM, active compounds read high
[4] = system: rhLYPLA1; settings: fluorescent probe labeling, soluble fraction, at 20 µM, active compounds read high

Row | SMILES | inhibition [1] | inhibition [2] | inhibition [3] | inhibition [4]
1 | COc1ccc(/C=C2/Sc3ccc(C(=O)NCCCN4CCOCC4)cc3NC2=O)cc1OC | 1% (inactive) | 0% (inactive) | 5% (inactive) | 0% (inactive)
2 | CCC(=O)N1CCN(c2ccc(NC(=S)NC(=O)c3ccc(OC)c([N+](=O)[O-])c3)cc2)CC1 | 21% (inactive) | 40% | 13% (inactive) | 25% (inactive)
3 | CCC(=C/c1sc2ccc3ccccc3c2[n+]1C)/C=C1\Sc2ccc3ccccc3c2N1C | 2% (inactive) | 7% (inactive) | 1% (inactive) | 0% (inactive)
4 | Cc1ccc(CN2CCN(/N=C/C=C/c3ccccc3[N+](=O)[O-])CC2)cc1 | 10% (inactive) | 26% (inactive) | 0% (inactive) | 27% (inactive)
5 | O=C(CN1CCN(C(=O)c2ccco2)CC1)Nc1cc(Cl)ccc1Cl | 0% (inactive) | 0% (inactive) | 37% | 60%
6 | COc1ccc(OC)c(NC(=O)C2CCC(CNc3c(N4CCC(C)CC4)c(=O)c3=O)CC2)c1 (configuration not stated) | 7% (inactive) | 3% (inactive) | 2% (inactive) | 27% (inactive)
7 | O=C(c1cc(COc2cccc(C(F)(F)F)c2)on1)N1CCC(Oc2cccnc2)CC1 | 0% (inactive) | 0% (inactive) |  | 0% (inactive)
8 | O=C(CCCCCCN1C(=O)c2ccccc2C1=O)N1CCC(c2ccccc2)C1 (configuration not stated) | 2% (inactive) | 17% (inactive) | 0% (inactive) | 17% (inactive)
9 | CC1CC(C)CN(S(=O)(=O)c2ccc3c(c2)CC(C)N3C(=O)C2CCC2)C1 (configuration not stated) | 0% (inactive) | 0% (inactive) | 0% (inactive) | 9% (inactive)
10 | COc1ccc(-n2nc(C(=O)NCC(=O)N3CCN(Cc4ccccc4)CC3)c3ccccc3c2=O)c(OC)c1 | 30% | 46% | 0% (inactive) | 31%
11 | O=C(COc1ccc(Cl)cc1)N1CCN(c2cccc(C(F)(F)F)c2)CC1 | 0% (inactive) | 9% (inactive) | 0% (inactive) | 0% (inactive)
12 | O=C(CCCc1ccccc1)N1CCN(c2ccc([N+](=O)[O-])cc2)CC1 | 0% (inactive) | 3% (inactive) | 0% (inactive) | 0% (inactive)
13 | COc1ccccc1-c1csc(-n2ncc(C#N)c2N)n1 | 4% (inactive) | 6% (inactive) |  | 0% (inactive)
14 | CC(=O)N1CCC2(CC1)C/C(=N\NC(=S)Nc1ccccc1C)c1cc(O)ccc1O2 | 3% (inactive) | 5% (inactive) | 2% (inactive) | 0% (inactive)
15 | O=C(C1CCC(Cn2c(=S)[nH]c3ccccc3c2=O)CC1)N1CCN(c2ccccc2)CC1 (configuration not stated) | 13% (inactive) | 8% (inactive) | 0% (inactive) | 0% (inactive)
16 | Cc1ccc(C)c(C(=O)CCC(=O)N2CCN(c3cccc(C(F)(F)F)c3)CC2)c1 | 0% (inactive) | 4% (inactive) | 4% (inactive) | 31%
17 | Cc1[nH]c2ccccc2c1C(=O)CN1CCN(C/C=C/c2ccccc2)CC1 | 0% (inactive) | 0% (inactive) | 0% (inactive) | 0% (inactive)
18 | CC(=O)c1ccc(N2CCN(C(=O)c3cccc(Oc4ccccc4)c3)CC2)cc1 | 12% (inactive) | 0% (inactive) | 0% (inactive) | 29% (inactive)
19 | O=C(CN1CCN(C(=O)c2ccco2)CC1)Nc1cc(C(F)(F)F)ccc1Cl | 0% (inactive) | 13% (inactive) | 60% | 78%
20 | O=C(CN1CCN(C(=O)c2ccccc2)CC1)Nc1cc(S(=O)(=O)N2CCCC2)ccc1Cl | 3% (inactive) | 14% (inactive) | 21% (inactive) | 55%
21 | O=C(CCN1CCN(c2ccc([N+](=O)[O-])cc2)CC1)c1ccc(Cl)cc1 | 6% (inactive) | 1% (inactive) | 9% (inactive) | 0% (inactive)
22 | O=C(COc1ccc(Cl)cc1)N1CCN(C/C=C/c2ccccc2)CC1 | 12% (inactive) | 25% (inactive) |  | 0% (inactive)
23 | CC(=O)N1CCC2(CC1)C/C(=N\NC(=S)Nc1ccc(C)cc1)c1cc(O)ccc1O2 | 0% (inactive) | 1% (inactive) | 0% (inactive) | 3% (inactive)
24 | Cc1nn(-c2ccccc2)c(N2CCCC2)c1/C=N/Nc1ccc(S(N)(=O)=O)cc1[N+](=O)[O-] | 0% (inactive) | 1% (inactive) | 0% (inactive) | 7% (inactive)

Row | SMILES | inhibition [1] | inhibition [2] | inhibition [3] | inhibition [4]
25 | CCN(CC)S(=O)(=O)c1cccc(-c2nnc(SCCOc3ccccc3)o2)c1 | 19% (inactive) | 17% (inactive) | 0% (inactive) | 8% (inactive)
26 | O=C(CCCCn1c(=O)[nH]c2ccccc2c1=O)N1CCN(c2cccc(C(F)(F)F)c2)CC1 | 0% (inactive) | 0% (inactive) | 0% (inactive) | 0% (inactive)
27 | COc1ccccc1-n1cc(C(=O)NCC(=O)N2CCN(Cc3ccccc3)CC2)c2ccccc2c1=O | 39% | 52% | 1% (inactive) | 0% (inactive)
28 | O=C(Nc1ccc2oc(-c3cccnc3)nc2c1)c1ccc2c(c1)OCCO2 | 0% (inactive) | 0% (inactive) | 0% (inactive) | 0% (inactive)
29 | O=[N+]([O-])c1cccc(/C=N/N2CCN(Cc3ccc(Cl)cc3)CC2)c1 | 0% (inactive) | 0% (inactive) | 0% (inactive) | 0% (inactive)
30 | O=C(c1ccc2n[nH]nc2c1)N1CCN(c2ccc(C(F)(F)F)cn2)CC1 | 32% | 57% | 90% | 70%
31 | COc1cc(/C=N/N2CCN(Cc3ccc(Cl)cc3)CC2)cc(Br)c1O | 0% (inactive) | 0% (inactive) | 0% (inactive) | 31%
32 | O=c1[nH]c(CN2CCN(C/C=C/c3ccccc3)CC2)nc2cc(Cl)ccc12 | 0% (inactive) | 2% (inactive) |  | 3% (inactive)
33 | CCOc1ccc(NC(=S)NC(=O)c2c(Br)cnn2C)c([N+](=O)[O-])c1 | 5% (inactive) | 16% (inactive) |  | 17% (inactive)
34 | Cc1cc(OCc2cc(C(=O)N3CCC(Oc4cccnc4)CC3)no2)cc(C)c1Cl | 3% (inactive) | 5% (inactive) |  | 0% (inactive)
35 | Nc1nc(NCc2ccco2)nc(N2CCN(Cc3ccccc3)CC2)c1[N+](=O)[O-] | 5% (inactive) | 1% (inactive) |  | 2% (inactive)
36 | O=C(/C=C/c1ccccc1)N1CCN(CCN2C(=O)c3cccc4cccc(c34)C2=O)CC1 | 18% (inactive) | 34% |  | 15% (inactive)
37 | O=C(NC(=S)Nc1sc2c(c1C(=O)O)CCCC2)c1ccccc1 | 34% | 52% |  | 2% (inactive)
38 | COc1cc([C@H]2Oc3cc([C@H]4Oc5cc(O)cc(O)c5C(=O)[C@@H]4O)ccc3O[C@@H]2CO)ccc1O | 28% (inactive) | 42% |  | 13% (inactive)
39 | O=C(c1ccc(S(=O)(=O)N2CCCCC2)cc1)N1CCN(CCN2C(=O)c3cccc4cccc(c34)C2=O)CC1 | 20% (inactive) | 27% (inactive) |  | 11% (inactive)
40 | O=C(/C=C/c1ccc(Br)cc1)N1CCN(c2cccc(C(F)(F)F)c2)CC1 | 15% (inactive) | 16% (inactive) |  | 16% (inactive)
41 | Cc1ccc(N2CCN(C3=NC(=O)/C(=C\c4cccs4)S3)CC2)cc1 | 5% (inactive) | 0% (inactive) |  | 0% (inactive)
42 | O=C(COc1ccc(Cl)cc1)N1CCN(c2ccc([N+](=O)[O-])c(N3CCCCC3)c2)CC1 | 5% (inactive) | 10% (inactive) |  | 36%
43 | COc1ccc(S(=O)(=O)Nc2ccc(Cc3ccncc3)cc2)cc1C | 0% (inactive) | 0% (inactive) |  | 12% (inactive)
44 | O=C(c1ccc(-c2ccccc2)c(F)c1)C1CCCN(C(=O)c2cncs2)C1 (configuration not stated) | 6% (inactive) | 12% (inactive) |  | 0% (inactive)
45 | CSc1ccccc1OCc1cc(C(=O)N2CCC(Oc3cccnc3)CC2)no1 | 6% (inactive) | 16% (inactive) |  | 0% (inactive)
46 | COc1ccc(N2CCN(C(=O)CCCCCn3c(=O)[nH]c4ccsc4c3=O)CC2)cc1 | 6% (inactive) | 6% (inactive) |  | 0% (inactive)
47 | COc1ccc(-n2nc(C(=O)NCC(=O)N3CCN(Cc4ccccc4)CC3)c3ccccc3c2=O)cc1 | 17% (inactive) | 43% |  | 17% (inactive)
48 | COc1ccc(C(=O)NC(=S)Nc2ccc(N3CCOCC3)c(Cl)c2)cc1[N+](=O)[O-] | 5% (inactive) | 1% (inactive) |  | 7% (inactive)
